Results taken from patent US20060052435A1, “Selective dopamin d3 receptor agonists for the treatment of sexual dysfunction” (priority 2001, published 2006).
Like-named read-outs stand apart in the source and are kept apart here.

Columns and labels:
anaesthetised dog [1] = test: haemodynamics in the anaesthetised dog; format: in vivo
Source text: Male beagles were anaesthetised with a mixture of chloralose and urethane, following pre-medication with piritramide. They were instrumented to measure arterial blood pressure, cardiac output, E.C.G., pudendal artery blood flow (PAF) and intra-cavernosal pressure (ICP). Other parameters such as heart rate and vascular resistance were derived from the primary signals. Following a period of equilibration, a series of control readings were taken and the effects of pelvic nerve stimulation at 4 and 8 Hz, on ICP and PAF were measured. Compounds were administered subcutaneously in the dorsal neck region via an implanted catheter, in the dose range of 0.3-3000 μg(base)/kg. Following each dose, parameters were measured at fixed intervals for 30 min.
Results were analysed as percent change from the final control values for each dog and mean values for three dogs were used.

anaesthetised dog [2] = test: emesis in the chloralose anaesthetised dog; details: male, beagle, dog, in vivo, sc, 30 min
Procedure: Male beagles, 11-17 kg were used. Following an overnight fast, animals were anaesthetised with chloralose (80 mg kg^−1 i.v.), having first been injected with an anaesthetic dose of the short acting barbiturate, thiopentone (15 mg kg^−1 i.v.). Following tracheal intubation, which ensured a patent airway even during the expulsion phase of the emetic response, the left femoral vein and artery were cannulated for further administration of anaesthetic and for recording haemodynamic parameters, respectively. […] During the stabilisation period, respiratory rate was monitored to ensure that central respiratory centres were not deeply depressed, since the CNS efferent component of the emetic reflex is essentially conveyed via respiratory motor neurones. […] Animals were observed closely for 30 min post-dose and motor (e.g. swallowing, eye blinking, limb movements, changes in respiratory rate and depth, retching and vomiting) and haemodynamic changes noted and recorded. […] At the end of an experiment animals were sacrificed with an overdose of pentobarbitone.
Observations made on individual animals were used to determine the percentage of animals that retched when injected with a particular dose level of test compound. Percentage of animals retching was then used to construct a dose response curve and an ED50 value determined from the appropriate curve.

telemetry rats = test: rat telemetry model of erection (intracavernosal pressure); format: in vivo; details: for proerectile effect (words): male models of erection / telemetry rats, agonist alone; for agonist-induced erectile activity with concomitant L-741,626 and SB-277,011: L-741,626 2 mg/kg s.c. and SB-277,011 3 mg/kg s.c.
Procedure: Erectile responses were recorded by measuring intracavernosal pressure and/or clitoral/vaginal blood flow using surgically implanted telemetric device. The specific details of the surgical procedures, data acquisition and analysis can be found in detail in Bernabe J, Rampin O, Sachs B D, Giuliano F. Intracavernous pressure during erection in rats: an integrative approach based on telemetric recording. Am. J. Physiol.

[3] = target: human dopamine D2 long receptor (Homo sapiens, UniProt P14416)
Chain of human dopamine D2 long receptor (P14416 whole entry): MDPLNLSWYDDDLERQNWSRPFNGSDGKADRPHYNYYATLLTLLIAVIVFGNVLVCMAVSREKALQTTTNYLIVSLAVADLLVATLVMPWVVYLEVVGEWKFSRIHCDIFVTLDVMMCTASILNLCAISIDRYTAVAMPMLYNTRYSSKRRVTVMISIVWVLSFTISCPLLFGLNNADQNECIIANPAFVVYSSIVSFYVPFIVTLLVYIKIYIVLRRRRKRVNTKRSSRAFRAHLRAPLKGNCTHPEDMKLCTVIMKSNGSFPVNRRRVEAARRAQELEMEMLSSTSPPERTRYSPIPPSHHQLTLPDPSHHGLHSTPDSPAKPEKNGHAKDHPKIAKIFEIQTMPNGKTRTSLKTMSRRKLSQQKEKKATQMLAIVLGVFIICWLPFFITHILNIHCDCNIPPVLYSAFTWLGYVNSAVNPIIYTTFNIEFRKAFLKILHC

[4] = target: human recombinant D2short (hD2s) receptors (Homo sapiens, UniProt P14416); test: inhibition of binding of [3H]-spiperone; details: n = 3-11
Chain of human recombinant D2short (hD2s) receptors (P14416 1-414 isoform P14416-2): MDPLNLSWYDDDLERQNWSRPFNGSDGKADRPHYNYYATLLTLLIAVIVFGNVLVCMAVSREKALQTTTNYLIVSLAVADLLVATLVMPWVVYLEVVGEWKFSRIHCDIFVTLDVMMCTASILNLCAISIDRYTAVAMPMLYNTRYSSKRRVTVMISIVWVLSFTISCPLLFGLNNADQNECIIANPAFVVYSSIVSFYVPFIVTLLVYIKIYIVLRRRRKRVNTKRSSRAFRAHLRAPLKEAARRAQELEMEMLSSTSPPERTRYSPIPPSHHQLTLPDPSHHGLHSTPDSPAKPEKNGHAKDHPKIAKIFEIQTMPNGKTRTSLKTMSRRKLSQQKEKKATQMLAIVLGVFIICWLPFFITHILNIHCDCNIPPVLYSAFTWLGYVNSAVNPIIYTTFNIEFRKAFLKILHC

ferrets = test: 7-OH-DPAT-induced emesis in the ferret; format: in vivo; details: for Antagonist potency ED100 versus 7-OH-DPAT-induced emesis: s.c., minimum dose completely inhibiting emesis in all animals, n = 3
[5] = unbound plasma and whole brain concentrations in anaesthetised ferrets; details: s.c. dosing at the ED100 dose, n = 1
dopamine D3 receptor = dopamine D3 receptor (Homo sapiens, UniProt P35462); test: cell-based
Chain of dopamine D3 receptor (P35462 whole entry, species assumed): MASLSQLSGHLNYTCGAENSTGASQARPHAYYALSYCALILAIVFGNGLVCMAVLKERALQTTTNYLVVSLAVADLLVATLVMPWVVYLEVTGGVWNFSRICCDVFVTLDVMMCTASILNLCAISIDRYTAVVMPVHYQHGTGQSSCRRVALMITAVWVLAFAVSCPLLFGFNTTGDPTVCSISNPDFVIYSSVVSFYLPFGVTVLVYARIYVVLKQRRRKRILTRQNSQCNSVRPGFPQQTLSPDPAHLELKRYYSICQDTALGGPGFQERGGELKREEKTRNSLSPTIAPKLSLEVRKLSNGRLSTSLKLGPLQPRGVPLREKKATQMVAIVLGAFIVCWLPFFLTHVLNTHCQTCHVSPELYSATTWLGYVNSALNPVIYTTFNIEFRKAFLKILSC

male rhesus monkeys = details: 20 and 50 ug/kg P.O., evaluated for 4 hr; cited from earlier work
D1 receptor = D1 receptor (Homo sapiens, UniProt P21728); details: quoted abstract; cited from earlier work
Chain of D1 receptor (P21728 whole entry): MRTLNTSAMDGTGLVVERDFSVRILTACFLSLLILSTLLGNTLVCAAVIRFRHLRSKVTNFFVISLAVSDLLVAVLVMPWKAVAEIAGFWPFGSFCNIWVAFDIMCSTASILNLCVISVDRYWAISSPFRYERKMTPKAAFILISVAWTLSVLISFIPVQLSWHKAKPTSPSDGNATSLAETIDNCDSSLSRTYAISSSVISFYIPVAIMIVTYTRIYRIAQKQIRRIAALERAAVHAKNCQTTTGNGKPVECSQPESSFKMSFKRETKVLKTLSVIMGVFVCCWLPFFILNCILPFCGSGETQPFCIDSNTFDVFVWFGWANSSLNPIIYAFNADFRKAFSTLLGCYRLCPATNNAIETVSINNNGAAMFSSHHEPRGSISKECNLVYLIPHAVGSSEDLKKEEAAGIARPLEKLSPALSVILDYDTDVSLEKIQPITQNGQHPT

D2 [6] = target: T1, D2 (Homo sapiens, UniProt P14416); details: quoted abstract; cited from earlier work
T1 sequence (P14416 whole entry): as the sequence (P14416 whole entry) above

[7] = system: ovariectomized, partially hormone-repleted female rats; details: 50 ug/kg P.O., 15-30 min after dosing; from 22+/−8%; cited from earlier work
[8] = target: human recombinant D3 (hD3) receptors (Homo sapiens, UniProt P35462, G9S); test: inhibition of binding of [3H]-R(+)-7-OH-DPAT; details: n = 3-11
Chain of human recombinant D3 (hD3) receptors (P35462 whole entry G9S): as the sequence (P35462 whole entry, species assumed) above, with G9S counted along it

D2 [9] = target: T1, D2; details: WO 93/23035; cited from earlier work
D3 = D3 (Homo sapiens, UniProt P35462); details: WO 93/23035; cited from earlier work
Chain of D3 (P35462 whole entry, species assumed): as the sequence (P35462 whole entry, species assumed) above

[10] = ferret, in vivo, sc
New Zealand rabbits = test: male and female anaesthetised rabbit, pelvic nerve stimulation; format: in vivo
Procedure: 1.1.1 Male and Female Anaesthetised Rabbit Methodology
Male and female New Zealand rabbits (˜2.5 kg) were pre-medicated with a combination of Medetomidine (Domitor®) 0.5 ml/kg i.m., and Ketamine (Vetalar®) 0.25 ml/kg i.m. whilst maintaining oxygen intake via a face mask. The rabbits were tracheotomised using a Portex™ uncuffed endotracheal tube 3 ID., connected to ventilator and maintained at a ventilation rate of 30-40 breaths per minute, with an approximate tidal volume of 18-20 ml, and a maximum airway pressure of 10 cm H2O. Anaesthesia was then switched to Isoflurane and ventilation continued with O2 at 2 l/min. The right marginal ear vein was cannulated using a 23 G or 24 G catheter, and Lactated Ringer solution perfused at 0.5 ml/min. The rabbit was maintained at 3% Isoflurane during invasive surgery, dropping to 2% for maintenance anaesthesia. The left jugular vein was exposed, isolated and then cannulated with a PVC catheter (17 G) for the infusion of drugs and compounds.
The left groin area of the rabbit was shaved and a vertical incision was made approximately 5 cm in length along the thigh. The femoral vein and artery were exposed, isolated and then cannulated with a PVC catheter (17 G) for the infusion of drugs and compounds. Cannulation was repeated for the femoral artery, inserting the catheter to a depth of 10 cm to ensure that the catheter reached the abdominal aorta. This arterial catheter was linked to a Gould system to record blood pressure. Samples for blood gas analysis were also taken via the arterial catheter. Systolic and diastolic pressures were measured, and the mean arterial pressure calculated using the formula (diastolic×2+systolic)÷3. Heart rate was measured via the pulse oxymeter and Po-ne-mah data acquisition software system (Ponemah Physiology Platform, Gould Instrument Systems, Inc.).
A ventral midline incision was made into the abdominal cavity. The incision was about 5 cm in length just above the pubis. The fat and muscle was bluntly dissected away to reveal the hypogastric nerve which runs down the body cavity. It was essential to keep close to the side curve of the pubis wall in order to avoid damaging the femoral vein and artery which lie above the pubis. The sciatic and pelvic nerves lie deeper and were located after further dissection on the dorsal side of the rabbit. Once the sciatic nerve is identified, the pelvic nerve was easily located. The term pelvic nerve is loosely applied; anatomy books on the subject fail to identify the nerves in sufficient detail. However, stimulation of the nerve causes an increase in vaginal and clitoral blood flow in females and in intracavernosal pressure and cavernosal blood flow in males, and innervation of the pelvic region. […]

[11] = target: D3 receptors over D2 receptors (Homo sapiens, UniProt P35462); details: GTPγS assay; cited from earlier work
Chain of D3 receptors over D2 receptors (P35462 whole entry, species assumed): as above

With `c1ccc(N2CCN(C[C@H]3CC[C@H](Nc4ncccn4)CC3)CC2)cc1` [trans-[4-[(4-Phenylpiperazin-1-yl)methyl]cyclohexyl]-pyrimidin-2-ylamine] the “Geometric mean ED30 (fall in TPR)” value (anaesthetised dog [1]; dog, in vivo) was 44.6 μg/kg s.c, the “cardiac output at the highest dose levels” value (anaesthetised dog [1]; dog, in vivo) was “approximately doubled” and the “effect on cardiac output and heart rate” value (anaesthetised dog [1]; dog, in vivo, sc) was “increases in cardiac output and heart rate”. For the same molecule, the “dose at which emesis was observed” value (anaesthetised dog [2]) was 0.1 mg/kg, the “erectogenic effect in the presence of selective D2 receptor antagonist L-741,626” value (telemetry rats; L-741,626 2 mg/kg s.c.) was “abolished” and the “proerectile effect (words)” value (telemetry rats) was “produced erections”. For the same molecule, the EC50 [3] was 3.8 nM.

In the case of `CCCN(CCC)[C@@H]1CCc2cc(CS(=O)(=O)c3ccc(OC)cc3)ccc2C1` [GR218231], the “Affinity estimates (pKi ± s.e.m.) hD2s” value [4] is reported as 6.8 ± 0.44, the “animals in which emesis was blocked” value (ferrets; highest dose of 10 mg/kg) is reported as “⅔” and the “Antagonist potency ED100 versus 7-OH-DPAT-induced emesis” value (ferrets) is reported as >10 mg/kg. For the same molecule, the “Brain conc^n” value [5] was 1670 ng/g, the “Plu/Ki hD2s (ratio of unbound plasma concentration to binding affinity)” value [5] was 1.3 and the “Plu/Ki hD3 (ratio of unbound plasma concentration to binding affinity)” value [5] was 95.

With `CCCNC1CCc2nc(N)sc2C1.Cl.Cl` (stereo not shown) [Pramipexole, 2-amino-4,5,6,7-tetrahydro-6-propylamino-benzthiazole-dihydrochloride] the “agonist-induced erectile activity with concomitant L-741,626 and SB-277,011” value (telemetry rats) was “abolishes all pramipexole-induced erectile activity”, the “No of erectogenic events/15 min” value (telemetry rats; Pramipexole 0.1 μg/kg s.c.) was 2.8 ± 0.2 n = 5 erectogenic events/15 min and the “proerectile effect (words)” value (telemetry rats) was “induces a proerectile effect”. The “proerectile effect (words)” value (telemetry rats; listed as pramipexole) was “induce/enhance proerectile effects” and the EC50 (dopamine D3 receptor) was 0.62 nM.

Molecule `CCCN1CCC[C@@H]2Cc3nc(N)ncc3C[C@H]21` [Quinelorane] has an EC50 [3] of 6.1 nM.

With `CN1CCc2cccc3c2[C@H]1Cc1ccc(O)c(O)c1-3` [Apomorphine] the “Geometric mean ED30 (fall in TPR)” value (anaesthetised dog [1]; dog, in vivo) was 11.7 μg/kg s.c, the “cardiac output at the highest dose levels” value (anaesthetised dog [1]; dog, in vivo) was “approximately doubled” and the “effect on cardiac output and heart rate” value (anaesthetised dog [1]; s.c.) was “increases in cardiac output and heart rate”. The “effect on total vascular resistance (TVR; TPR)” value (anaesthetised dog [1]; s.c., doses up to 3000 μg/kg) was “reduction in total vascular resistance” and the “proerectile effect (words)” value (telemetry rats) was “induce/enhance proerectile effects”.

For `CCCN1CCOC(c2ccc(F)c(O)c2)C1` (single isomer, unassigned) [Example 23a, R-(+)-2-Fluoro-5-(4-propylmorpholin-2-yl)phenol], the EC50 [3] was > 5000 nM.

With `CCCN1CCOC(c2cc(O)cc(O)c2)C1` (racemic) [Example 15a + 15b (racemate)] the EC50 [3] was > 10000 nM.

For `CN[C@@H]1Cc2cccc3[nH]c(=S)n(c23)C1` [PNU-142774E], the “non-contact sexual behavior (erections, masturbation)” value (male rhesus monkeys) is given as “increase in sexual behavior”, the Ki (D1 receptor) is given as > 7000 nM and the Ki (D2 [6]) is given as 7 nM. For the same molecule, the “lordosis/mounts ratio (L/M)” value [7] was 65+/−10%.

With `CCCN1CCOC(c2ccc(F)c(O)c2)C1` (racemic) [Example 23a + 23b (racemate)] the EC50 [3] was > 5000 nM.

For `OC1(c2ccc(Cl)cc2)CCN(Cc2c[nH]c3ccccc23)CC1` [L-741,626], the “Affinity estimates (pKi ± s.e.m.) hD3” value [8] was 6.6 ± 0.24, the “Antagonist potency ED100 versus 7-OH-DPAT-induced emesis” value (ferrets) was 3 mg/kg and the “Brain conc^n” value [5] was 250 ng/g.

For `CCCN(CCC)CCc1cccc2c1CC(=O)N2` [Ropinirole], the “binding D2” value (D2 [9]) is listed as 1380 nM, the EC50 [3] is listed as 16.1 nM and the “binding D3” value (D3) is listed as 69 nM.

With `CCCN(CCC)C1CCc2ccc(O)cc2C1` (stereo not shown) [Example 7-OH-DPAT] the “agonist-induced erectile activity with concomitant L-741,626 and SB-277,011” value (telemetry rats) was “abolishes all 7-OH-DPAT-induced erectile activity”, the “proerectile effect (words)” value (telemetry rats) was “induce/enhance proerectile effects” and the “emetic response, total retches and vomits (mean±s.e.m.)” value (ferrets; 0.1 mg/kg s.c., observed for 6 h, control animals) was 78.0±9.0.

Molecule `CCCN1CCOC(c2cc(O)cc(O)c2)C1` (single isomer, unassigned) [Example 15a, R-5-(4-Propylmorpholin-2-yl)benzene-1,3-diol] has an EC50 [3] of 1750 nM.

With `CCc1cc(Cl)c(OC)c(C(=O)NC[C@@H]2CCCN2CC)c1O` [(S)-eticlopride] the Ki ([4]; read-out: Affinity estimates (pKi ± s.e.m.) hD2s (converted)) was 0.501 nM, the “Antagonist potency ED100 versus 7-OH-DPAT-induced emesis” value (ferrets) was 0.03 mg/kg and the “Brain conc^n” value [10] was 377 ng/g.

For `CCCN1CCOC(c2ccc(O)c(N)c2)C1` (stereo not shown) [Example 37, 2-Amino-4-(4-propylmorpholin-2-yl)phenol], the EC50 [3] was > 100000 nM.

Molecule `CCCN1CCOC(c2ccc(O)c(C(N)=O)c2)C1` (stereo not shown) [Example 35, 2-Hydroxy-5-(4-propylmorpholin-2-yl)benzamide] has an EC50 [3] of ~10500 nM.

For `CCCN1CCO[C@H]2c3cc(C(N)=O)ccc3CC[C@@H]21` [Example S32504], the “penile intracavernosal pressure and cavernosal blood flow in male rabbits” value (New Zealand rabbits) is listed as “beneficially enhances”, the “vaginal and clitoral blood flow in female rabbits” value (New Zealand rabbits) is listed as “beneficially enhances” and the “selectivity for D3 receptors over D2 receptors” value [11] is listed as 251 fold.
